The source of these data is PMC7609050, “Photosynthesis without β-carotene” (eLife, 2020).

This assay addresses T1, PSII core (Nicotiana tabacum, UniProt P06411+P06413+P69556+P69686).
T1 construct: gene psbA; native PSII core complex, sucrose gradient band of alpha-DDM-solubilised thylakoids; some Lhcb contamination
As to the kind of experiment: HPLC and absorption-fit pigment analysis of isolated complex. In kind it is binding. The conditions noted are these: normalised to 37 Chls. The text has this:
HPLC and absorption-fit pigment analysis of isolated complex on PSII core

In the case of `CC1=C(/C=C/C(C)=C/C=C/C(C)=C/C=C/C=C(C)/C=C/C=C(C)/C=C/C2=C(C)C(=O)[C@@H](O)CC2(C)C)C(C)(C)C[C@H](O)C1=O` [astaxanthin], the “Asta and its bypass products” value (complex from Asta plants (no beta-carotene), count includes by-products of astaxanthin synthesis) worked out at 4.12 ± 0.01 molecules per complex.

The compound `CC1=C(/C=C/C(C)=C/C=C/C(C)=C/C=C/C=C(C)/C=C/C=C(C)/C=C/C2=C(C)CCCC2(C)C)C(C)(C)CCC1` [β-carotene] gave a β-caro (complex from wild-type plants) of 3.93 ± 0.08 molecules per complex.
